molecular target: T1, Cannabinoid-1 receptor (CB1R) (Rattus norvegicus, UniProt P20272); experiment: Cannabinoid-1 receptor (CB1R) binding affinity assay ([3H]CP-55940, rat CB-1 receptor binding protocol); details: brain tissue of SD rats, [3H]CP-55940, 30° C. 60 min; read-out: IC50
T1 construct: The tissue obtained from the brain of SD rats was homogenized; from tissue; host or cells: brain of SD rats (membrane pellet of the homogenate)
T1 sequence (P20272 whole entry): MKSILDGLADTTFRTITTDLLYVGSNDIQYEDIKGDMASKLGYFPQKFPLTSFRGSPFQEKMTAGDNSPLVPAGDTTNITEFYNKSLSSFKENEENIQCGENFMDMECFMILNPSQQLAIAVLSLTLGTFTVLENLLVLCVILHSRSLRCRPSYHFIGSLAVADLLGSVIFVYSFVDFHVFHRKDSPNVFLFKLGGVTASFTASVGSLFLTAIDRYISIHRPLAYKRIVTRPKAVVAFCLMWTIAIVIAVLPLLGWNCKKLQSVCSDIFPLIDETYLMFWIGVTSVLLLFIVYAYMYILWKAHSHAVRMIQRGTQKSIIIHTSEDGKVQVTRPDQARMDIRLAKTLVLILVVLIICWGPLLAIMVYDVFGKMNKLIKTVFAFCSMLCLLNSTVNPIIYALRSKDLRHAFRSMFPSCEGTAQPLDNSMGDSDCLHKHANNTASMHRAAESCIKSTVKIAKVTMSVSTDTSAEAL

SMILES | IC50
Cc1c(-c2nnn(CC3CCCCC3)n2)nn(-c2ccc(Cl)cc2Cl)c1-c1ccc(Cl)cc1 [Example 590, 5-(5-(4-Chlorophenyl)-1-(2,4-dichlorophenyl)-4-methyl-1H-pyrazol-3-yl)-2-(cyclohexylmethyl)-2H-tetrazole] | 85.3 nM
Cc1c(-c2nnnn2C2CCCC2)nn(-c2ccc(Cl)cc2Cl)c1-c1ccc(Br)cc1 [Example 606, 5-(5-(4-bromophenyl)-1-(2,4-dichlorophenyl)-4-methyl-1H-pyrazol-3-yl)-1-cyclopentyl-1H-tetrazole] | 11.6 nM
Cc1c(-c2nnnn2C2CCCCCC2)nn(-c2ccc(Cl)cc2Cl)c1-c1ccc(Br)cc1 [Example 608, 5-(5-(4-bromophenyl)-1-(2,4-dichlorophenyl)-4-methyl-1H-pyrazol-3-yl)-1-cycloheptyl-1H-tetrazole] | 16.5 nM
CCc1c(-c2nnnn2C2CCCC2)nn(-c2ccc(Cl)cc2Cl)c1-c1ccc(Br)cc1 [Example 609, 5-(5-(4-bromophenyl)-1-(2,4-dichlorophenyl)-4-ethyl-1H-pyrazol-3-yl)-1-cyclopentyl-1H-tetrazole] | 14.2 nM
CCc1c(-c2nnnn2C2CCCC2)nn(-c2ccc(Cl)cc2Cl)c1-c1ccc(Cl)cc1 [Example 610, 5-(5-(4-chlorophenyl)-1-(2,4-dichlorophenyl)-4-ethyl-1H-pyrazol-3-yl)-1-cyclopentyl-1H-tetrazole] | 22.6 nM
Cc1c(-c2n[nH]c(C3CCCC3)n2)nn(-c2ccc(Cl)cc2Cl)c1-c1ccc(Cl)cc1 [Example 611, 3-(5-(4-Chlorophenyl)-1-(2,4-dichlorophenyl)-4-methyl-1H-pyrazol-3-yl)-5-cyclopentyl-1H-1,2,4-triazole] | 699 nM
Cc1c(-c2n[nH]c(C3CCCCC3)n2)nn(-c2ccc(Cl)cc2Cl)c1-c1ccc(Cl)cc1 [Example 612, 3-(5-(4-Chlorophenyl)-1-(2,4-dichlorophenyl)-4-methyl-1H-pyrazol-3-yl)-5-cyclohexyl-1H-1,2,4-triazole] | 227 nM
Cc1c(-c2n[nH]c(C3CCCCCC3)n2)nn(-c2ccc(Cl)cc2Cl)c1-c1ccc(Cl)cc1 [Example 615, 3-(5-(4-chlorophenyl)-1-(2,4-dichlorophenyl)-4-methyl-1H-pyrazol-3-yl)-5-cycloheptyl-1H-1,2,4-triazole] | 625 nM
CCCc1nc(-c2nn(-c3ccc(Cl)cc3Cl)c(-c3ccc(Cl)cc3)c2C)n[nH]1 [Example 617, 3-(5-(4-chlorophenyl)-1-(2,4-dichlorophenyl)-4-methyl-1H-pyrazol-3-yl)-5-propyl-1H-1,2,4-triazole] | 523 nM
Cc1c(-c2n[nH]c(C(C)C)n2)nn(-c2ccc(Cl)cc2Cl)c1-c1ccc(Cl)cc1 [Example 618, 3-(5-(4-chlorophenyl)-1-(2,4-dichlorophenyl)-4-methyl-1H-pyrazol-3-yl)-5-isopropyl-1H-1,2,4-triazole] | 142 nM
Cc1c(-c2n[nH]c(C3CC3)n2)nn(-c2ccc(Cl)cc2Cl)c1-c1ccc(Cl)cc1 [Example 619, 3-(5-(4-chlorophenyl)-1-(2,4-dichlorophenyl)-4-methyl-1H-pyrazol-3-yl)-5-cyclopropyl-1H-1,2,4-triazole] | 128 nM
Cc1c(-c2n[nH]c(CC3CC3)n2)nn(-c2ccc(Cl)cc2Cl)c1-c1ccc(Cl)cc1 [Example 620, 3-(5-(4-chlorophenyl)-1-(2,4-dichlorophenyl)-4-methyl-1H-pyrazol-3-yl)-5-(cyclopropylmethyl)-1H-1,2,4-triazole] | 720 nM
Cc1c(-c2n[nH]c(C3CCC3)n2)nn(-c2ccc(Cl)cc2Cl)c1-c1ccc(Cl)cc1 [Example 621, 3-(5-(4-chlorophenyl)-1-(2,4-dichlorophenyl)-4-methyl-1H-pyrazol-3-yl)-5-cyclobutyl-1H-1,2,4-triazole] | 348 nM
CCC(C)c1nc(-c2nn(-c3ccc(Cl)cc3Cl)c(-c3ccc(Cl)cc3)c2C)n[nH]1 (centres unmarked) [Example 622, 5-sec-butyl-3-(5-(4-chlorophenyl)-1-(2,4-dichlorophenyl)-4-methyl-1H-pyrazol-3-yl)-1H-1,2,4-triazole] | 840 nM
Cc1c(-c2nc(C3CCCC3)n(C)n2)nn(-c2ccc(Cl)cc2Cl)c1-c1ccc(Cl)cc1 [Example 623, 3-(5-(4-chlorophenyl)-1-(2,4-dichlorophenyl)-4-methyl-1H-pyrazol-3-yl)-5-cyclopentyl-1-methyl-1H-1,2,4-triazole] | 368 nM

Further lines, results first:

IC50 | SMILES
93 nM | Cc1c(-c2nnn(Cc3ccccn3)n2)nn(-c2ccc(Cl)cc2Cl)c1-c1ccc(Cl)cc1 [Example 584, 2-((5-(5-(4-Chlorophenyl)-1-(2,4-dichlorophenyl)-4-methyl-1H-pyrazol-3-yl)-2H-tetrazol-2-yl)methyl)pyridine]
103 nM | Cc1c(-c2nnnn2Cc2cccnc2)nn(-c2ccc(Cl)cc2Cl)c1-c1ccc(Cl)cc1 [Example 585, 3-((5-(5-(4-Chlorophenyl)-1-(2,4-dichlorophenyl)-4-methyl-1H-pyrazol-3-yl)-1H-tetrazol-1-yl)methyl)pyridine]
100 nM | Cc1c(-c2nnn(Cc3cccnc3)n2)nn(-c2ccc(Cl)cc2Cl)c1-c1ccc(Cl)cc1 [Example 586, 3-((5-(5-(4-Chlorophenyl)-1-(2,4-dichlorophenyl)-4-methyl-1H-pyrazol-3-yl)-2H-tetrazol-2-yl)methyl)pyridine]
88.2 nM | Cc1c(-c2nnnn2Cc2ccncc2)nn(-c2ccc(Cl)cc2Cl)c1-c1ccc(Cl)cc1 [Example 587, 4-((5-(5-(4-Chlorophenyl)-1-(2,4-dichlorophenyl)-4-methyl-1H-pyrazol-3-yl)-1H-tetrazol-1-yl)methyl)pyridine]
135 nM | Cc1c(-c2nnn(Cc3ccncc3)n2)nn(-c2ccc(Cl)cc2Cl)c1-c1ccc(Cl)cc1 [Example 588, 4-((5-(5-(4-Chlorophenyl)-1-(2,4-dichlorophenyl)-4-methyl-1H-pyrazol-3-yl)-2H-tetrazol-2-yl)methyl)pyridine]
135 nM | Cc1c(-c2nnnn2CCc2ccccc2)nn(-c2ccc(Cl)cc2Cl)c1-c1ccc(Cl)cc1 [Example 591, 5-(5-(4-Chlorophenyl)-1-(2,4-dichlorophenyl)-4-methyl-1H-pyrazol-3-yl)-1-phenethyl-1H-tetrazole]
122 nM | Cc1c(-c2nnn(CCc3ccccc3)n2)nn(-c2ccc(Cl)cc2Cl)c1-c1ccc(Cl)cc1 [Example 592, 5-(5-(4-Chlorophenyl)-1-(2,4-dichlorophenyl)-4-methyl-1H-pyrazol-3-yl)-2-phenethyl-2H-tetrazole]
53.8 nM | Cc1c(-c2nnnn2Cc2ccco2)nn(-c2ccc(Cl)cc2Cl)c1-c1ccc(Cl)cc1 [Example 593, 5-(5-(4-Chlorophenyl)-1-(2,4-dichlorophenyl)-4-methyl-1H-pyrazol-3-yl)-1-(furan-2-ylmethyl)-1H-tetrazole]
93.8 nM | Cc1c(-c2nnn(Cc3ccco3)n2)nn(-c2ccc(Cl)cc2Cl)c1-c1ccc(Cl)cc1 [Example 594, 5-(5-(4-Chlorophenyl)-1-(2,4-dichlorophenyl)-4-methyl-1H-pyrazol-3-yl)-2-(furan-2-ylmethyl)-2H-tetrazole]
105 nM | Cc1c(-c2nnnn2Cc2ccoc2)nn(-c2ccc(Cl)cc2Cl)c1-c1ccc(Cl)cc1 [Example 595, 5-(5-(4-Chlorophenyl)-1-(2,4-dichlorophenyl)-4-methyl-1H-pyrazol-3-yl)-1-(furan-3-ylmethyl)-1H-tetrazole]
195 nM | Cc1c(-c2nnn(Cc3ccoc3)n2)nn(-c2ccc(Cl)cc2Cl)c1-c1ccc(Cl)cc1 [Example 596, 5-(5-(4-Chlorophenyl)-1-(2,4-dichlorophenyl)-4-methyl-1H-pyrazol-3-yl)-2-(furan-3-ylmethyl)-2H-tetrazole]
39.8 nM | Cc1c(-c2nnnn2Cc2ccsc2)nn(-c2ccc(Cl)cc2Cl)c1-c1ccc(Cl)cc1 [Example 597, 5-(5-(4-Chlorophenyl)-1-(2,4-dichlorophenyl)-4-methyl-1H-pyrazol-3-yl)-1-(thiophen-3-ylmethyl)-1H-tetrazole]
77.6 nM | Cc1c(-c2nnn(Cc3ccsc3)n2)nn(-c2ccc(Cl)cc2Cl)c1-c1ccc(Cl)cc1 [Example 598, 5-(5-(4-Chlorophenyl)-1-(2,4-dichlorophenyl)-4-methyl-1H-pyrazol-3-yl)-2-(thiophen-3-ylmethyl)-2H-tetrazole]
181 nM | Cc1c(-c2nnnn2C2CC2)nn(-c2ccc(Cl)cc2Cl)c1-c1ccc(Cl)cc1 [Example 599, 5-(5-(4-Chlorophenyl)-1-(2,4-dichlorophenyl)-4-methyl-1H-pyrazol-3-yl)-1-cyclopropyl-1H-tetrazole]
42.3 nM | Cc1c(-c2nnnn2C2CCC2)nn(-c2ccc(Cl)cc2Cl)c1-c1ccc(Cl)cc1 [Example 600, 5-(5-(4-Chlorophenyl)-1-(2,4-dichlorophenyl)-4-methyl-1H-pyrazol-3-yl)-1-cyclobutyl-1H-tetrazole]
50.6 nM | CCCCCCn1nnnc1-c1nn(-c2ccc(Cl)cc2Cl)c(-c2ccc(Cl)cc2)c1C [Example 603, 5-(5-(4-Chlorophenyl)-1-(2,4-dichlorophenyl)-4-methyl-1H-pyrazol-3-yl)-1-hexyl-1H-tetrazole]
128 nM | Cc1c(-c2nnnn2C23CC4CC(CC(C4)C2)C3)nn(-c2ccc(Cl)cc2Cl)c1-c1ccc(Cl)cc1 [Example 605, 1-Adamantyl-5-(5-(4-chlorophenyl)-1-(2,4-dichlorophenyl)-4-methyl-1H-pyrazol-3-yl)-1H-tetrazole]
476 nM | Cc1c(-c2n[nH]c(-c3ccccc3)n2)nn(-c2ccc(Cl)cc2Cl)c1-c1ccc(Cl)cc1 [Example 613, 3-(5-(4-Chlorophenyl)-1-(2,4-dichlorophenyl)-4-methyl-1H-pyrazol-3-yl)-5-phenyl-1H-1,2,4-triazole]
389 nM | Cc1c(-c2n[nH]c(-c3cccs3)n2)nn(-c2ccc(Cl)cc2Cl)c1-c1ccc(Cl)cc1 [Example 614, 3-(5-(4-Chlorophenyl)-1-(2,4-dichlorophenyl)-4-methyl-1H-pyrazol-3-yl)-5-(thiophen-2-yl)-1H-1,2,4-triazole]
534 nM | Cc1c(-c2n[nH]c(-c3ccco3)n2)nn(-c2ccc(Cl)cc2Cl)c1-c1ccc(Cl)cc1 [Example 616, 3-(5-(4-chlorophenyl)-1-(2,4-dichlorophenyl)-4-methyl-1H-pyrazol-3-yl)-5-(furan-2-yl)-1H-1,2,4-triazole]
